Source: PubChem BioAssay AID330 (DTP/NCI, 2004)
Several values for one entry are separate records, joined by “and”; a condition that tells them apart may be missing. Equal entries are not always repeated. Toxic doses and inconclusive results are not listed. Rule for the calls: active = survival T/C of 150% or more; inactive = T/C below 125% in these data.

System: P388 leukemia ip, CD2F1 mice, survival T/C
Assay: NCI In Vivo Anticancer Drug Screen. Data for tumor model P388 Leukemia (intraperitoneal) in CD2F1 (CDF1) mice
Conditions: endpoint: median survival time, higher = longer survival
How it was run: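 Mice carrying the transplanted tumor received test compound or vehicle. Survival was recorded in each group, and the value is the treated-group measurement divided by that of the vehicle-treated control group.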

[1] = dose: 50.0 mg/kg/injection, schedule: Q01DX009 (ip), vehicle: saline
[2] = dose: 100.0 mg/kg/injection, schedule: Q01DX009 (ip), vehicle: saline
[3] = dose: 200.0 mg/kg/injection, schedule: Q01DX009 (ip), vehicle: saline
[4] = dose: 50.0 mg/kg/injection, schedule: Q01DX009 (ip), vehicle: saline with Tween-80
[5] = dose: 100.0 mg/kg/injection, schedule: Q01DX009 (ip), vehicle: saline with Tween-80
[6] = dose: 200.0 mg/kg/injection, schedule: Q01DX009 (ip), vehicle: saline with Tween-80
[7] = dose: 50.0 mg/kg/injection, schedule: Q01DX005 (ip), vehicle: Klucel (hydroxypropylcellulose) (HPC)
[8] = dose: 100.0 mg/kg/injection, schedule: Q01DX005 (ip), vehicle: Klucel (hydroxypropylcellulose) (HPC)
[9] = dose: 200.0 mg/kg/injection, schedule: Q01DX005 (ip), vehicle: Klucel (hydroxypropylcellulose) (HPC)
[10] = dose: 400.0 mg/kg/injection, schedule: Q01DX009 (ip), vehicle: saline with Tween-80
[11] = dose: 100.0 mg/kg/injection, schedule: Q04DX003 (ip), vehicle: saline with Tween-80
[12] = dose: 200.0 mg/kg/injection, schedule: Q04DX003 (ip), vehicle: saline with Tween-80
[13] = dose: 400.0 mg/kg/injection, schedule: Q04DX003 (ip), vehicle: saline with Tween-80

Measured: T/C

[N-]=[N+]=CC(=O)OCC1NC(=O)C(COC(=O)C=[N+]=[N-])NC1=O (configuration not stated)
inactive: dose: 12.5 mg/kg/injection, schedule: Q01DX009 (ip), vehicle: other 104 % of control and 102 % of control | dose: 25.0 mg/kg/injection, schedule: Q01DX009 (ip), vehicle: other 113 % of control and 101 % of control | dose: 100.0 mg/kg/injection, schedule: Q01DX009 (ip), vehicle: other 111 % of control and 120 % of control | dose: 200.0 mg/kg/injection, schedule: Q01DX009 (ip), vehicle: other 95 % of control and 111 % of control | dose: 3.1 micrograms/kg/injection, schedule: Q01DX009 (ip), vehicle: water 109 % of control and 104 % of control | dose: 6.1 micrograms/kg/injection, schedule: Q01DX009 (ip), vehicle: water 98 % of control and 101 % of control | dose: 12.2 micrograms/kg/injection, schedule: Q01DX009 (ip), vehicle: water 114 % of control and 100 % of control | dose: 24.4 micrograms/kg/injection, schedule: Q01DX009 (ip), vehicle: water 104 % of control and 107 % of control | dose: 48.8 micrograms/kg/injection, schedule: Q01DX009 (ip), vehicle: water 100 % of control | dose: 97.5 micrograms/kg/injection, schedule: Q01DX009 (ip), vehicle: water 92 % of control and 97 % of control | dose: 195.0 micrograms/kg/injection, schedule: Q01DX009 (ip), vehicle: water 100 % of control and 96 % of control | dose: 390.0 micrograms/kg/injection, schedule: Q01DX009 (ip), vehicle: water 109 % of control and 105 % of control | dose: 780.0 micrograms/kg/injection, schedule: Q01DX009 (ip), vehicle: water 100 % of control

N#Cc1cnn(-c2ccc([N+](=O)[O-])cc2[N+](=O)[O-])c1N
inactive: [1] 101 % of control | [2] 100 % of control | [3] 108 % of control

CC(C)(C)c1cc(=O)[nH]c(NC(N)=O)n1
inactive: [4] 96 % of control | [5] 90 % of control | [6] 96 % of control

CC(=O)C1=CN(C)c2ccccc2[S@@]1=O
inactive: [7] 103 % of control | [8] 100 % of control | [9] 100 % of control

Cc1nnc2n1N=C1CC(C)(C)CC(=O)C1S2 (configuration not stated)
inactive: [4] 101 % of control | [5] 102 % of control | [6] 94 % of control

CC(=NC(C)C)Nc1ccccc1
inactive: [4] 104 % of control | [5] 105 % of control

CCn1cnc2c(SC)ncnc21
inactive: dose: 12.5 mg/kg/injection, schedule: Q01DX009 (ip), vehicle: saline 100 % of control | dose: 25.0 mg/kg/injection, schedule: Q01DX009 (ip), vehicle: saline 100 % of control | [1] 95 % of control | dose: 100.0 mg/kg/injection, schedule: Q04DX003 (ip), vehicle: other 100 % of control

CC(C)(C)[Si](C)(C)O[C@H]1C=C(S(=O)(=O)c2ccccc2)[C@H](O)C1
inactive: dose: 60.0 mg/kg/injection, schedule: Q01DX005 (ip), vehicle: Klucel (hydroxypropylcellulose) (HPC) 100 % of control | dose: 120.0 mg/kg/injection, schedule: Q01DX005 (ip), vehicle: Klucel (hydroxypropylcellulose) (HPC) 102 % of control | dose: 240.0 mg/kg/injection, schedule: Q01DX005 (ip), vehicle: Klucel (hydroxypropylcellulose) (HPC) 100 % of control

CN(C)c1ccc(CN2CCCN(Cc3ccc(N(C)C)cc3)C2c2cc(Cl)ccc2O)cc1
inactive: [5] 95 % of control | [6] 90 % of control | [10] 90 % of control

Nc1c(Br)cc2c(c1Br)Cc1cc(Br)ccc1-2
inactive: [11] 104 % of control | [12] 109 % of control | [13] 90 % of control

CN(C)CCCNC(=S)C(=S)NCCCN(C)C
inactive: [7] 97 % of control | [8] 105 % of control

COc1ccc(/C=C2\CCCC3=C2N=C2SCC(=O)N2C3c2ccc(OC)cc2)cc1 (configuration not stated)
inactive: dose: 25.0 mg/kg/injection, schedule: Q04DX003 (ip), vehicle: saline with Tween-80 98 % of control | dose: 50.0 mg/kg/injection, schedule: Q04DX003 (ip), vehicle: saline with Tween-80 92 % of control | [11] 90 % of control

COC1=Cc2c(O)c3c(c(O)c2C(OC2CC(N)C(O)C(C)O2)C1)C(=O)c1c(OC)cccc1C3=O (configuration not stated)
inactive: dose: 3.13 mg/kg/injection, schedule: Q04DX003 (ip), vehicle: water 98 % of control | dose: 6.25 mg/kg/injection, schedule: Q04DX003 (ip), vehicle: water 98 % of control | dose: 12.5 mg/kg/injection, schedule: Q04DX003 (ip), vehicle: water 102 % of control | dose: 25.0 mg/kg/injection, schedule: Q04DX003 (ip), vehicle: water 109 % of control | dose: 50.0 mg/kg/injection, schedule: Q04DX003 (ip), vehicle: water 107 % of control

CC(C)(C)OP(=O)(NN)OC(C)(C)C
inactive: [1] 101 % of control | [2] 108 % of control | [3] 99 % of control

CC(=O)/C=C/C=C/c1ccc2c(c1)OC(CO)C(c1ccc(O)c(O)c1)O2 (configuration not stated)
inactive: [7] 95 % of control | [8] 90 % of control and 95 % of control | [9] 87 % of control | dose: 400.0 mg/kg/injection, schedule: Q01DX005 (ip), vehicle: Klucel (hydroxypropylcellulose) (HPC) 87 % of control

Cc1cc(=O)[nH]c(N/N=C/c2ccccc2O)n1
inactive: [5] 90 % of control | [11] 90 % of control | [6] 90 % of control | [12] 90 % of control | [10] 90 % of control | [13] 100 % of control

Nc1nc(-c2ccc(F)cc2)cc(-c2cc(-c3ccc(F)cc3)nc(N)n2)n1
inactive: dose: 60.0 mg/kg/injection, schedule: Q01DX005 (ip), vehicle: saline 100 % of control | dose: 120.0 mg/kg/injection, schedule: Q01DX005 (ip), vehicle: saline 105 % of control | dose: 240.0 mg/kg/injection, schedule: Q01DX005 (ip), vehicle: saline 102 % of control

CC(=O)c1c(O)ccc2nc3ccccc3nc12
inactive: dose: 50.0 mg/kg/injection, schedule: Q01DX009 (ip), vehicle: suspension in saline 105 % of control | dose: 100.0 mg/kg/injection, schedule: Q01DX009 (ip), vehicle: suspension in saline 111 % of control | dose: 200.0 mg/kg/injection, schedule: Q01DX009 (ip), vehicle: suspension in saline 93 % of control

C=C[C@@]1(C)CC(=O)[C@]2(O)[C@@]3(C)[C@@H](O)CCC(C)(C)[C@@H]3[C@H](O)[C@@H](OC(C)=O)[C@@]2(C)O1
inactive: dose: 6.25 mg/kg/injection, schedule: Q01DX005 (ip), vehicle: saline + Tween-80 + alcohol 95 % of control | dose: 12.5 mg/kg/injection, schedule: Q01DX005 (ip), vehicle: saline + Tween-80 + alcohol 102 % of control

Nc1cc(C(F)(F)F)cc(N)c1N
inactive: dose: 50.0 mg/kg/injection, schedule: Q01DX005 (ip), vehicle: saline with Tween-80 104 % of control | dose: 100.0 mg/kg/injection, schedule: Q01DX005 (ip), vehicle: saline with Tween-80 94 % of control | dose: 200.0 mg/kg/injection, schedule: Q01DX005 (ip), vehicle: saline with Tween-80 99 % of control

CCOC(=O)NC(=S)c1cccn1C
inactive: [7] 98 % of control | [8] 103 % of control | [9] 105 % of control
